According to US9550785B2, “Pyrrolopyrimidines as therapeutic agents for the treatment of diseases” (GlaxoSmithKline LLC, priority 2012, dated 2017):
Structures can show the parent of a compound that is named as a salt.

Columns and labels:
Interferon-α = test: Induction of Interferon-α using fresh human whole blood (WB); type: cell-based; conditions: three donors, overnight incubation, cytokine released as percentage of 2 μM resiquimod control, read-out: mean pEC50 for INF-α (converted)
Experimental: (§1) Assay for the Induction of Interferon-α and TNF-α Using Fresh Human Whole Blood (WB)
(§2) Compounds were prepared at 100× required concentration in DMSO in flat-bottom microtitre plates at a volume of 1.5 μL. Columns 1-10 contained a 1 in 4 serial dilution of the test compound. Included on each plate was a serial dilution of the TLR7/8 agonist resiquimod as a standard and Column 11 contained 1.5 μl of 200 μM resiquimod (giving a 2 μM final concentration, used to define the approximate maximal response to resiquimod). Each compound was assayed in duplicate for each donor.
(§3) Blood samples from three human donors were collected into sodium heparin (10 U/ml). 150 μl of whole Blood was dispensed into Col 1 to 11 of assay plates containing 1.5 μl of test compound or standard in DMSO. Plates were placed in an incubator overnight (37° C., 95% air, 5% CO2). Following the overnight incubation, plates were removed from the incubator & mixed on an orbital shaker for approximately 1 minute. 100 μl of 0.9% saline was added to each well and the plates mixed again on an orbital shaker. Plates were then centrifuged (2500 rpm, 10 mins), after which a sample of plasma was removed using a Biomek FX and assayed for both IFN-α and TNF-α using the MSD (Mesoscale Discovery) electrochemiluminescence assay platform. The IFN-α assay was carried out similarly to that described above. The TNF-α assay was carried out as per kit instructions (Cat No K111BHB).
(§4) Cytokine released was expressed as a percentage of the 2 μM resiquimod control (column 11). This percentage was plotted against compound concentration and the pEC50 for the response determined by non-linear least squares curve fitting. For the IFN-α responses, generally a 4 parameter logistic model was selected. For the TNF-α responses where a clear maximum response was obtained (i.e. a well defined plateau in the response was observed) then a 4 parameter model was generally used. […]

TNF-α = test: Induction of TNF-α using fresh human whole blood (WB); type: cell-based; conditions: three donors, overnight incubation, cytokine released as percentage of 2 μM resiquimod control, read-out: mean pEC50 for TNF-α (converted)
Experimental: as §1, §2, §3, §4

SMILES	EC50 (Interferon-α) [µM]	EC50 (TNF-α) [µM]
CCCCc1nc(N)c2[nH]cc(CCCC3CCN(C(C)C)CC3)c2n1 [Example 2, 2-Butyl-7-(3-(1-isopropylpiperidin-4-yl)propyl)-5H-pyrrolo[3,2-d]pyrimidin-4-amine]	≤ 0.398	≤ 10
CCCCc1nc(N)c2[nH]cc(CCC3CCNCC3)c2n1 [Example 3, 2-Butyl-7-(2-(piperidin-4-yl)ethyl)-5H-pyrrolo[3,2-d]pyrimidin-4-amine]	≤ 0.398	≤ 10
CCCCc1nc(N)c2[nH]cc(CCCC3CCNCC3)c2n1 [Example 1, 2-Butyl-7-(3-(piperidin-4-yl)propyl)-5H-pyrrolo[3,2-d]pyrimidin-4-amine formate]	≤ 0.398	≤ 10
